Experimental data reported in US20220087987A1, “A METHOD FOR TREATING SWI/SNF COMPLEX-DEFICIENT CANCERS COMPRISING GLUTATHIONE (GSH) METABOLIC PATHWAY INHIBITOR” (National Cancer Center, priority 2018, published 2022).
Counter-ions that a name gives are not always drawn. Like-named read-outs stand apart in the source and are kept apart here. Peptide text beside a SMILES is read from it. * marks the point of attachment. Cbz = O=C(OCc1ccccc1)*; CH2Cl = ClC*; CH2F = FC*

What was measured:
Format in all cases: cell-based, human
[1] = Drug library screen, cell viability (CellTiter-Glo); conditions: human; HCT116 ARID1A-WT; 10 μM for 5 days; relative to cells treated with solvent (DMSO); read-out: Cell viability, WT
Method in brief: (§1)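 Luminescent ATP read-out (CellTiter-Glo) at day 5, normalised to solvent (DMSO) controls, in paired HCT116 lines, ARID1A knockout versus wild type. Candidates selected where KO cells fell below 40% viability and WT cells stayed above 80%.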

ARID1A-KO HCT116 cells = experiment: as above; conditions: for viability at 10 µM: Homo sapiens, HCT-116, 120 h, read-out: Cell viability, KO
Method in brief: as §1

ARID1A-WT HCT116 cells = experiment: as above
Method in brief: as §1

[2] = HCT116 ARID1A-KO, 10 μM for 5 days, relative to cells treated with solvent (DMSO)
[3] = HCT116 ARID1A-WT, 10 μM for 5 days, relative to cells treated with solvent (DMSO)

Molecule | Cell viability, WT (ARID1A-WT HCT116 cells; [3]) | Cell viability, KO (ARID1A-KO HCT116 cells; [2]) | further results
C[C@H]1O[C@@H](n2cnc3c(N)ncnc32)C[C@@H]1O [2′,5′-dideoxyadenosine] | – | – | viability [1]: 198%; viability at 10 µM (ARID1A-KO HCT116 cells; [2]): 172%
Cc1ncc2ccccc2c1C#N [4-cyano-3-methylisoquinoline] | – | – | viability at 5 days, 10 μM [1]: 143%; viability at 10 µM (ARID1A-KO HCT116 cells; [2]): 164%
CNc1ccc2oc(C[C@H]3O[C@@]4(CC[C@H]3C)O[C@H]([C@H](C)C(=O)c3ccc[nH]3)[C@H](C)C[C@H]4C)nc2c1C(=O)O [A23187] | – | – | viability [1]: 6.25%; viability at 10 µM (ARID1A-KO HCT116 cells; [2]): 8.67%
CN(C)CC[C@H](CSc1ccccc1)Nc1ccc(S(=O)(=O)NC(=O)c2ccc(N3CCN(Cc4ccccc4-c4ccc(Cl)cc4)CC3)cc2)cc1[N+](=O)[O-] [ABT-737] | – | – | viability at 5 days, 10 μM [1]: 94.4%; viability at 10 µM (ARID1A-KO HCT116 cells; [2]): 89.5%
C[C@]1(c2nc3c(C(N)=O)cccc3[nH]2)CCCN1 [ABT-888 (Veliparib), Veliparib] | – | – | viability at 5 days, 10 μM [1]: 62.7%; viability at 10 µM (ARID1A-KO HCT116 cells; [2]): 53.3%
CNCc1ccc(-c2[nH]c3cc(F)cc4c3c2CCNC4=O)cc1 [AG014699 (Rucaparib), Rucaparib] | – | – | viability at 5 days, 10 μM [1]: 18.7%; viability at 10 µM (ARID1A-KO HCT116 cells; [2]): 16%
CC[C@@]1(O)C[C@H](O[C@H]2C[C@H](N(C)C)[C@H](O[C@H]3C[C@H](O)[C@H](O[C@H]4CCC(=O)[C@H](C)O4)[C@H](C)O3)[C@H](C)O2)c2c(cc3c(c2O)C(=O)c2c(O)cccc2C3=O)[C@H]1C(=O)OC [Aclarubicin] | – | – | viability [1]: 4.48%; viability at 10 µM (ARID1A-KO HCT116 cells; [2]): 5.53%
CCCCC[C@H](CC(=O)NO)C(=O)N[C@H](C(=O)N1CCC[C@H]1CO)C(C)C [Actinonin] | – | – | viability at 5 days, 10 μM [1]: 88.5%; viability at 10 µM (ARID1A-KO HCT116 cells; [2]): 103%
CC(C)C[C@@H](N)[C@H](O)C(=O)N[C@H](C(=O)N[C@H](C(=O)N[C@@H](CC(=O)O)C(=O)O)C(C)C)C(C)C [Amastatin] | – | – | viability at 5 days, 10 μM [1]: 102%; viability at 10 µM (ARID1A-KO HCT116 cells; [2]): 110%
N=C(N)NC(=O)c1nc(Cl)c(N)nc1N [Amiloride] | – | – | viability at 5 days, 10 μM [1]: 106%; viability at 10 µM (ARID1A-KO HCT116 cells; [2]): 113%
CCC1(c2ccc(N)cc2)CCC(=O)NC1=O (centres unmarked) [Aminoglutethimide] | – | – | viability at 5 days, 10 μM [1]: 108%; viability at 10 µM (ARID1A-KO HCT116 cells; [2]): 107%
N=C(N)NN [Aminoguanidine, HCl] | – | – | viability at 5 days, 10 μM [1]: 188%; viability at 10 µM (ARID1A-KO HCT116 cells; [2]): 128%
C[C@@]1(CO)[C@H](O)CC[C@@]2(C)[C@H]1CC[C@H]1C[C@@H]3C[C@@]12CC[C@]3(O)CO [Aphidicolin] | – | – | viability at 5 days, 10 μM [1]: 14%; viability at 10 µM (ARID1A-KO HCT116 cells; [2]): 11.9%
CNC(=O)c1ccccc1Sc1ccc2c(/C=C/c3ccccn3)n[nH]c2c1 [Axitinib] | – | – | viability at 5 days, 10 μM [1]: 36.4%; viability at 10 µM (ARID1A-KO HCT116 cells; [2]): 42.6%
Fc1ccc(Cl)cc1-c1nc(Nc2ccncc2)c2nccnc2n1 [SD208] | 73.72 | 78.9 | –
NC(=O)C1CCCc2c1[nH]c1ccc(Cl)cc21 (centres unmarked) [SIRT1 inhibitor III] | 92.15 | 98.94 | –
CC(C)c1cc(/C=C(\C#N)C(=O)NCCCc2ccccc2)cc(C(C)C)c1O [SU1498] | 165.2374 | 119.3751 | –
O=CN1CCN(c2ccc(/C=C3\C(=O)Nc4ccccc43)cc2)CC1 [SU4984] | 129.369 | 172.2779 | –
Cc1c[nH]c(/C=C2\C(=O)Nc3ccccc32)c1CCC(=O)O [SU5402] | 110.6763 | 139.2404 | –
CN(C)S(=O)(=O)c1ccc2c(c1)/C(=C/c1cc3c([nH]1)CCCC3)C(=O)N2 [SU6656] | – | – | Cell viability, WT (ARID1A-WT HCT116 cells): 124.1846; Cell viability, KO (ARID1A-KO HCT116 cells): 170.9958
Cc1[nH]c(/C=C2\C(=O)Nc3ccc(S(=O)(=O)N(C)c4cccc(Cl)c4)cc32)c(C)c1C(=O)N1CCN(C)CC1 [SU11274] | 71.94 | 82.98 | –
CCN(CC)CCNC(=O)c1c(C)[nH]c(/C=C2\C(=O)Nc3ccc(Cl)cc32)c1C [SU11652] | 4.735 | 8.987 | –
Cn1cc(/C=C2\C(=O)Nc3ccc(S(N)(=O)=O)cc32)c2ccccc21 [Syk inhibitor] | – | – | Cell viability, WT (ARID1A-WT HCT116 cells): 58.62; Cell viability, KO (ARID1A-KO HCT116 cells): 91.09
Brc1c(Br)c(Br)c2n[nH]nc2c1Br [TBB] | 187.1148 | 147.5332 | –
CCN1/C(=C/C(C)=O)Sc2ccc(OC)cc21 [TG003] | 115.1966 | 138.6968 | –
Cc1cccc(-c2[nH]ncc2-c2ccc3ncccc3n2)n1 [TGF-b RI kinase inhibitor II] | 90.9 | 104.5326 | –

Molecule | Cell viability, WT (ARID1A-WT HCT116 cells; [3]) | Cell viability, KO (ARID1A-KO HCT116 cells; [2]) | further results
C[n+]1ccc(-c2c3nc(c(-c4cc[n+](C)cc4)c4ccc([nH]4)c(-c4cc[n+](C)cc4)c4ccc([nH]4)c(-c4cc[n+](C)cc4)c4nc2C=C4)C=C3)cc1 [TMPyP4] | 19.35 | 32.37 | –
CCCCCCCCCCCCCCOc1ccc(C(=O)O)o1 [TOFA] | 75.72 | 74.56 | –
Nc1cccc(-c2cc3c(Oc4cccc(O)c4)ncnc3[nH]2)c1 [TWS119] | – | – | Cell viability, WT (ARID1A-WT HCT116 cells): 30.07; Cell viability, KO (ARID1A-KO HCT116 cells): 23.39
Cc1cc(C=C2C(=O)C=CC2=O)cc(C)c1O [TX-1918] | 117.0659 | 173.7673 | –
CN(C)CCCCC(=O)Nc1ccc(NC(=S)NC(=O)c2ccc(C(C)(C)C)cc2)cc1 [Tenovin-6] | 2.514 | 5.579 | –
O=C(NCc1ccccc1)c1csc(Nc2ccncn2)n1 [Thiazovivin] | 50.22 | 30.49 | –
CC(C)n1nc(-c2cc3cc(O)ccc3[nH]2)c2c(N)ncnc21 [Torkinib] | 8.777 | 9.988 | –
CC(/C=C/C(=O)NO)=C\[C@@H](C)C(=O)c1ccc(N(C)C)cc1 [Trichostatin A] | 6.352 | 5 | –
CCOC(=O)c1c(C)[nH]c(/C=C2\C(=O)Nc3ccccc32)c1C [VEGF recptor 2 kinase inhibitor I] | 106.2493 | 109.4563 | –
CC(C)C[C@H](NC(=O)CNC(=O)OCc1ccccc1)C(=O)N[C@@H](Cc1ccccc1)C(=O)CCl [Z-GLF-CMK] (Cbz-Gly-Leu-Phe-CH2Cl) | 4.255 | 4.8907 | –
COC(=O)C[C@H](NC(=O)[C@H](C)NC(=O)[C@@H](NC(=O)OCc1ccccc1)C(C)C)C(=O)CF [Z-VAD-FMK] (Cbz-Val-Ala-Asp(OMe)-CH2F) | 177.3841 | 128.7264 | –
Cc1ccc(NC(=O)c2cccc(N(C)C)c2)cc1NC(=O)c1ccc(O)cc1 [ZM 336372] | 121.6939 | 179.4192 | –
C[C@H]1CCC/C=C/[C@@H]2C[C@H](O)C[C@H]2[C@H](O)/C=C/C(=O)O1 [brefeldin A] | 1.838 | 4.578 | –
c1cc(-c2cnn3cc(-c4ccc(OCCN5CCCCC5)cc4)cnc23)ccn1 [compound C] | 6.447 | 9.381 | –
Akt Inhibitor IV | 3.276 | 5.523 | –
Antimycin A1 | 4.328 | 7.111 | –
Bleomycin sulfate | 27.28 | 30.2 | –
Cytostatin | 10.14 | 7.493 | –
GSK-3 inhibitor IX | 105.4779 | 147.7846 | –
MEK inhibitor I | 77.6 | 117.4589 | –
Tamoxifen, citrate | 24.8 | 18.66 | –
Tunicamycin | 4.6969 | 6.011 | –
Valeryl salicylate | 169.5428 | 118.3391 | –
a-Amanitin | 8.977 | 10.21 | –
b-Rubromycin | 88.7 | 93.87 | –
indirubin-3′-monoxime | 105.9954 | 124.9767 | –
